Test results published in the supplement of paper PMC13207355.

Key:
Details in all cases: exposure time: 72 h
E13 [1] = patient-derived glioblastoma stem cells of classical subtype; assay: surviving fraction (nuclei count normalised to DMSO); higher = more cells surviving (less toxic)
E21 [2] = patient-derived glioblastoma stem cells of mesenchymal subtype; assay: as above
E28 [3] = patient-derived glioblastoma stem cells of classical subtype; assay: as above
E31 [4] = patient-derived glioblastoma stem cells of proneural subtype; assay: as above
E34 [5] = patient-derived glioblastoma stem cells of proneural subtype; assay: as above
E57 [6] = patient-derived glioblastoma stem cells of mesenchymal subtype; assay: as above
FT3469 [7] = normal neural stem cell line; assay: as above
E13 [8] = assay: phenotypic distance (Euclidean, principal components) from DMSO controls (arbitrary units); higher = stronger morphological change
E21 [9] = assay: as above
E28 [10] = assay: as above
E31 [11] = assay: as above
E34 [12] = assay: as above
E57 [13] = assay: as above
FT3469 [14] = assay: as above
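Wherever phenotypic distance (Euclidean, principal components) from DMSO controls is given: cell Painting imaging in 384-well plates, CellProfiler features reduced to at least 20 principal components, Euclidean distance versus same-plate DMSO vehicle wells (0.1% v/v), median over six images per well.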
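Wherever surviving fraction (nuclei count normalised to DMSO) is given: nuclei counted by high-content imaging of Hoechst-stained cells in laminin-coated 384-well plates, relative to 0.1% DMSO vehicle wells, with staurosporine as cell-death control.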

C[C@@H]1C[C@@H]([C@H](O)CC2CC(=O)NC(=O)C2)C(=O)[C@@H](C)C1 [Cycloheximide]
Details | phenotypic distance | surviving fraction
E13 [1], 4.1 nM | – | 0.769
E13 [1], 12.3 nM | – | 0.713
E13 [1], 37 nM | – | 0.644
E13 [1], 111.1 nM | – | 0.654
E13 [1], 333.3 nM | – | 0.436
E13 [1], 1000 nM | – | 0.408
E13 [1], 3000 nM | – | 0.306
E13 [8], 4.1 nM | 1.33 | –
E13 [8], 12.3 nM | 5.02 | –
E13 [8], 37 nM | 1.69 | –
E13 [8], 111.1 nM | 1.77 | –
E13 [8], 333.3 nM | 3.18 | –
E13 [8], 1000 nM | 3.1 | –
E13 [8], 3000 nM | 4.48 | –
E21 [2], 4.1 nM | – | 0.753
E21 [2], 12.3 nM | – | 0.688
E21 [2], 37 nM | – | 0.532
E21 [2], 111.1 nM | – | 0.518
E21 [2], 333.3 nM | – | 0.443
E21 [2], 1000 nM | – | 0.356
E21 [2], 3000 nM | – | 0.305
E21 [9], 4.1 nM | 1.69 | –
E21 [9], 12.3 nM | 1.77 | –
E21 [9], 37 nM | 2.65 | –
E21 [9], 111.1 nM | 3.3 | –
E21 [9], 333.3 nM | 5.28 | –
E21 [9], 1000 nM | 4.65 | –
E21 [9], 3000 nM | 3.46 | –
E28 [3], 4.1 nM | – | 0.899
E28 [3], 12.3 nM | – | 0.76
E28 [3], 37 nM | – | 0.771
E28 [3], 111.1 nM | – | 0.592
E28 [3], 333.3 nM | – | 0.542
E28 [3], 1000 nM | – | 0.346
E28 [3], 3000 nM | – | 0.451
E28 [10], 4.1 nM | 0.801 | –
E28 [10], 12.3 nM | 0.904 | –
E28 [10], 37 nM | 0.979 | –
E28 [10], 111.1 nM | 1.14 | –
E28 [10], 333.3 nM | 1.17 | –
E28 [10], 1000 nM | 1.95 | –
E28 [10], 3000 nM | 2.12 | –
E31 [4], 4.1 nM | – | 0.854
E31 [4], 12.3 nM | – | 0.905
E31 [4], 37 nM | – | 0.703
E31 [4], 111.1 nM | – | 0.684
E31 [4], 333.3 nM | – | 0.477
E31 [4], 1000 nM | – | 0.297
E31 [4], 3000 nM | – | 0.261
E31 [11], 4.1 nM | 0.95 | –
E31 [11], 12.3 nM | 0.932 | –
E31 [11], 37 nM | 1.32 | –
E31 [11], 111.1 nM | 1.7 | –
E31 [11], 333.3 nM | 2.21 | –
E31 [11], 1000 nM | 2.11 | –
E31 [11], 3000 nM | 3 | –
E34 [5], 4.1 nM | – | 0.885
E34 [5], 12.3 nM | – | 0.873
E34 [5], 37 nM | – | 0.815
E34 [5], 111.1 nM | – | 0.616
E34 [5], 333.3 nM | – | 0.562
E34 [5], 1000 nM | – | 0.584
E34 [5], 3000 nM | – | 0.414
E34 [12], 4.1 nM | 1.3 | –
E34 [12], 12.3 nM | 0.758 | –
E34 [12], 37 nM | 0.919 | –
E34 [12], 111.1 nM | 1.49 | –
E34 [12], 333.3 nM | 1.35 | –
E34 [12], 1000 nM | 2.05 | –
E34 [12], 3000 nM | 3.12 | –
E57 [6], 4.1 nM | – | 0.723
E57 [6], 12.3 nM | – | 0.694
E57 [6], 37 nM | – | 0.546
E57 [6], 111.1 nM | – | 0.511
E57 [6], 333.3 nM | – | 0.322
E57 [6], 1000 nM | – | 0.323
E57 [6], 3000 nM | – | 0.227
E57 [13], 4.1 nM | 1.49 | –
E57 [13], 12.3 nM | 1.61 | –
E57 [13], 37 nM | 2.55 | –
E57 [13], 111.1 nM | 2.56 | –
E57 [13], 333.3 nM | 4.4 | –
E57 [13], 1000 nM | 4.89 | –
E57 [13], 3000 nM | 4.79 | –
FT3469 [7], 4.1 nM | – | 0.912
FT3469 [7], 12.3 nM | – | 0.753
FT3469 [7], 37 nM | – | 0.87
FT3469 [7], 111.1 nM | – | 0.918
FT3469 [7], 333.3 nM | – | 0.691
FT3469 [7], 1000 nM | – | 0.723
FT3469 [7], 3000 nM | – | 0.633
FT3469 [14], 4.1 nM | 0.852 | –
FT3469 [14], 12.3 nM | 0.622 | –
FT3469 [14], 37 nM | 1.06 | –
FT3469 [14], 111.1 nM | 1.36 | –
FT3469 [14], 333.3 nM | 5.19 | –
FT3469 [14], 1000 nM | 1.49 | –
FT3469 [14], 3000 nM | 1.95 | –
